From patent US10093656B2, “Fused-ring or tricyclic aryl pyrimidine compound used as kinase inhibitor” (NANJING SANHOME PHARMACEUTICAL CO., LTD, priority 2015, dated 2018)

Key:
EGFR d746-750/T790M = molecular target: T1, EGFR d746-750/T790M (Homo sapiens, UniProt P00533, DEL746-750/T790M); assay: EGFR d746-750/T790M enzyme HTRF inhibition assay; assay type: biochemical; conditions: 40 μM ATP
T1 construct: purchased Carna Biosciences (Japan)
Procedure: (§1) Enzyme: EGFR wild type, EGFR T790M/L858R, EGFR T790M and INSR were purchased from Life technology (Madison, Wis.), EGFR d746-750/T790M was purchased from Carna Biosciences (Japan).
(§2) HTRF Kit was purchased from Cis-Bio International which contained the Eu-labeled TK1 antibody, XL665 and biotin-labeled TK1 polypeptide substrates.
(§3) Detecting instrument: Envision (PerkinElmer).
(§4) The test compound was diluted 3-fold to obtain 10 doses of which the final concentration was from 300 nM to 0.015 nM.
EGFR d746-750/T790M Enzyme Reaction Mixture System:
0.025 nM EGFR d746-750/T790M, 1 μM biotin-TK1 peptide, 40 μM ATP enzyme buffer, a total of which was 10 μL. The reaction plate was white Proxiplate 384-Plus plate (PerkinElmer) and the mixture was reacted at 23° C. for 60 minutes.
(§5) Reaction Detection: 10 μL of detection reagent containing Antibody 2 nM and XL665 62.5 nM was added, and the reagent was incubated at 23° C. for 60 minutes. The plates were read by Envision.
(§6) The reading is converted to the suppression rate (%) by the following formula […]/(Max-Min)*100%. IC50 Data was measured by four-parameter curve fitting (Model 205 in XLFITS, IDBS).

[1] = test system: NCI-H1975 cells EGFR L858R/T790M; assay: NCI-H1975 cell viability assay (Cell Titer-Glo, 6 days); assay type: cell-based; conditions: Homo sapiens, 144 h
Procedure: (§7) RPMI1640, fetal bovine serum, penicillin/streptomycin solution were purchased from Life Technology (Madison, Wis.). Cell Titer-Glo luminescent cell viability reagents were purchased from Promega (Madison, Wis.). A431 cell line and NCI-H1975 cell line were purchased from European Collection of Cell Cultures (ECACC). Plate Reader Instrument: Envision (PerkinElmer).
(§8) 384-Well plates, 300 of A431 cells and NCI-H1975 cells were inoculated per well, a volume of which was 45 μL. And the plates were incubated overnight in a CO2 incubator at 37° C. The test compound was diluted 3-fold to obtain 10 dose concentrations, the final concentrations of which were from 10 μM to 0.508 nM, two wells. The middle plates were filled with 49 μL of medium per well. 1 μL of compound in the gradient dilution compound plates was transferred to the middle plates and mixed well. And then 5 μL liquid in the middle plates was taken to the cell plates. The cells were incubated in a CO2 incubator for 6 days. After 6 days, 25 μL of detection reagents was added. And then the mixture was incubated at room temperature for 10 minutes and the plates were read by Envision.
(§9) The reading is converted to the suppression rate by the following formula (%) (Max-Sample)/(Max-Min)*100%. IC50 Data was measured by Four-parameter curve fitting (Model 205 in XLFIT5, IDBS).

A431 cells EGFR WT = assay: A431 cell viability assay (Cell Titer-Glo, 6 days); assay type: cell-based, human; conditions: for IC50: Homo sapiens, A-431, 144 h, A431 cells, 6 days; for A431:NCI-H1975 (ratio): ratio of cell IC50 A431 to NCI-H1975
Procedure: as §7, §8, §9

EGFR T790M/L858R = molecular target: T2, EGFR T790M/L858R (Homo sapiens, UniProt P00533, L858R/T790M); assay: EGFR T790M/L858R enzyme HTRF inhibition assay; assay type: biochemical; conditions: 20 μM ATP, read-out: EGFR L858R/T79M IC50
T2 construct: purchased Life technology (Madison, Wis.)
Procedure: as §1, §2, §3, §4
EGFR T790M/L858R Enzyme Reaction Mixture System:
0.04 nM EGFR T790M/L858R, 1 μM biotin-TK1 peptide, 20 μM ATP enzyme buffer, a total of which was 10 μL. The reaction plate was white Proxiplate 384-Plus plate (PerkinElmer) and the mixture was reacted at 23° C. for 60 minutes.
as §5, §6

EGFR wild type = molecular target: T3, EGFR wild type (Homo sapiens, UniProt P00533); assay: Wild-type EGFR enzyme HTRF inhibition assay; assay type: biochemical; conditions: 25 μM ATP, read-out: EGFR WT IC50
T3 construct: purchased Life technology (Madison, Wis.)
Procedure: as §1, §2, §3, §4
Wild-Type EGFR Enzyme Reaction Mixture System:
0.05 nM Wild-type EGFR, 1 μM biotin-TK1 peptide, 25 μM ATP enzyme buffer, a total of which was 10 μL. The reaction plate was white Proxiplate 384-Plus plate (PerkinElmer) and the mixture was reacted at 23° C. for 60 minutes.
as §5, §6

T2 sequence (P00533 25-1210 T790M/L858R): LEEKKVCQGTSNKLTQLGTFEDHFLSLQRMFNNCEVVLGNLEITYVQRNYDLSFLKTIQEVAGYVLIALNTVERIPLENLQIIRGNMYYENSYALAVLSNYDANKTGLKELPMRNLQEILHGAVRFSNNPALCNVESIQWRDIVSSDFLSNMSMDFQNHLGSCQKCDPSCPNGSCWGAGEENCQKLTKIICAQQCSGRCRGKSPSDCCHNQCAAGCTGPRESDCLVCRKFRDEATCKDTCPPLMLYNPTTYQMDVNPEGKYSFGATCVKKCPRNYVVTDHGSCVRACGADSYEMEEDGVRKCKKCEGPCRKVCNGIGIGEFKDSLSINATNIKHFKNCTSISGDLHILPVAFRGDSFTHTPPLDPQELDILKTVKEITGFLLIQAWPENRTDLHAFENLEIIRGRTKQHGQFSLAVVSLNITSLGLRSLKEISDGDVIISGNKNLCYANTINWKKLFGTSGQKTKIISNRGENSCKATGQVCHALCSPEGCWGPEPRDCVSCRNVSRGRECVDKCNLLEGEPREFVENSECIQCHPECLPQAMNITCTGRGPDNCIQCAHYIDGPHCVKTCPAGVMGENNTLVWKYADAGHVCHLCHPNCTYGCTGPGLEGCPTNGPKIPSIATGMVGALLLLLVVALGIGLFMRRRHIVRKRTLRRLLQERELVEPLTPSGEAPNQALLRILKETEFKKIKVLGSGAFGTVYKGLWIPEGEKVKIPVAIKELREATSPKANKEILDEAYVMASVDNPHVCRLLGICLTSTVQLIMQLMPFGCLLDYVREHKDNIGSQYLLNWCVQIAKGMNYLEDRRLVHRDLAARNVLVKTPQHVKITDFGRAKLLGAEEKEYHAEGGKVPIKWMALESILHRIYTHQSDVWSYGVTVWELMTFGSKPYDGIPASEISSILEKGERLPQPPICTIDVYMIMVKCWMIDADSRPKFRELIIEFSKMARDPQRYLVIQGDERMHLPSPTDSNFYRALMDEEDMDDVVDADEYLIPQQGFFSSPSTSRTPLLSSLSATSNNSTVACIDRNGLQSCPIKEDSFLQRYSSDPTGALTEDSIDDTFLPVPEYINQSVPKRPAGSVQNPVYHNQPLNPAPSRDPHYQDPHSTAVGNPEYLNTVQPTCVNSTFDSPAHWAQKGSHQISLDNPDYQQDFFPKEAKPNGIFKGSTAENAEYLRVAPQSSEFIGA
T3 sequence (P00533 25-1210): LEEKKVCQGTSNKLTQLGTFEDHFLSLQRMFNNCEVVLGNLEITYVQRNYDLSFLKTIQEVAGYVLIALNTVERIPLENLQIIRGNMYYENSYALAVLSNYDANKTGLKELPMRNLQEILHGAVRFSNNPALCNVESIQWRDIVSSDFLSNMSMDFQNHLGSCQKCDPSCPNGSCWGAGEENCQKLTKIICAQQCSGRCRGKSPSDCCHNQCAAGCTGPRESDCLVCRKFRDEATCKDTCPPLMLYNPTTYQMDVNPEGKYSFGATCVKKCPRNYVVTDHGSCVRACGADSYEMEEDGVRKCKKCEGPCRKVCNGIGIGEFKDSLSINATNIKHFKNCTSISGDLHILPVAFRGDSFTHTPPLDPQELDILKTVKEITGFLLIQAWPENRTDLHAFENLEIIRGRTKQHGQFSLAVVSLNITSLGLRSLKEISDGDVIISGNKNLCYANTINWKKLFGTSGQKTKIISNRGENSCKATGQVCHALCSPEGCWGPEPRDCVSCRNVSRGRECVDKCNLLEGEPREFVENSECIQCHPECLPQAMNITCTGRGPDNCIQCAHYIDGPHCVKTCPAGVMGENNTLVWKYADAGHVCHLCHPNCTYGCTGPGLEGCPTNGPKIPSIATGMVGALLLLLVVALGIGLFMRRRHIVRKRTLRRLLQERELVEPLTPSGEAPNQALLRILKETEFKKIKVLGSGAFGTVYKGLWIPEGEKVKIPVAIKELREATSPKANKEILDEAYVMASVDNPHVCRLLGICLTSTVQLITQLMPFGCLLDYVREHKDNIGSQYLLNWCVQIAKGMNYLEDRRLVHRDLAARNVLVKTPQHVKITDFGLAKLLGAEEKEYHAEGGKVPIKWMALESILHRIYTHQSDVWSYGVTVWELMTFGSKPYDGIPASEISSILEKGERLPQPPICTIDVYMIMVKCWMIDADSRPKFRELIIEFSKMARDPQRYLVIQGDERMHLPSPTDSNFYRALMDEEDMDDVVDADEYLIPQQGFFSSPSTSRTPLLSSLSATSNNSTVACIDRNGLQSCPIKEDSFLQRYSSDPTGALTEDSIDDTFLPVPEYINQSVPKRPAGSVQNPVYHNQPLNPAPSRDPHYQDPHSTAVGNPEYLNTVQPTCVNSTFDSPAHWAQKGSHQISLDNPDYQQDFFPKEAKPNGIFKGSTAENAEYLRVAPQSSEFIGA
T1 sequence (P00533 with tags, fused parts or gaps DEL746-750/T790M limits assumed): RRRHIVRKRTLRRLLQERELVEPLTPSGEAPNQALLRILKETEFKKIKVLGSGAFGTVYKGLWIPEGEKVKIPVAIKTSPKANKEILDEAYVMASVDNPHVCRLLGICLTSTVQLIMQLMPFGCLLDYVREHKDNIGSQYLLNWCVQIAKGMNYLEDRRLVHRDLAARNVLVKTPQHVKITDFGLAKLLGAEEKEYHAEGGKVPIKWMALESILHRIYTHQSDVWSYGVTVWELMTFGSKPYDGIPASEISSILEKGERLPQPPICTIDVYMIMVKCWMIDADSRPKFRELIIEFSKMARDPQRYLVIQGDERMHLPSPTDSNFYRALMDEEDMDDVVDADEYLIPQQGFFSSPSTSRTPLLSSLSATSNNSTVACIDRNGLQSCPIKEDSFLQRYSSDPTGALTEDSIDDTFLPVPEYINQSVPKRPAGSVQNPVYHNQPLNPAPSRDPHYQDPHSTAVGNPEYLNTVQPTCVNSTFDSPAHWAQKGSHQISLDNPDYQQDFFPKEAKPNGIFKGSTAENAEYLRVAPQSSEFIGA

Compound | IC50 (EGFR d746-750/T790M) [nM] | IC50 [1] [nM] | IC50 (A431 cells EGFR WT) [nM] | IC50 (EGFR T790M/L858R) [nM] | IC50 (EGFR wild type) [nM] | A431:NCI-H1975 (ratio) (A431 cells EGFR WT)
C=CC(=O)Nc1cc(Nc2nccc(-c3c4n(c5ccccc35)CCC4)n2)c(OC)cc1N1CCN(C)CC1 [Embodiment 4, 2-(2-Methoxy-4-(N-methyl)piperazine-5-acrylamidoanilino)-4-(3-(1,2,3-dihydropyrrolo[1,2-a]indol))pyrimidine] | 2.7 | 434 | 4620 | 3.25 | 60 | 10.6
C=CC(=O)Nc1cc(Nc2nccc(-c3c4n(c5ccccc35)CC(F)(F)CC4)n2)c(OC)cc1N(C)CCN(C)C [Embodiment 14, N-(5-((4-(7,7-Difluoro-8,9-dihydro-6H-pyrido[1,2-a]indol-10-yl)pyrimidin-2-yl)amino)-2-((2-(dimethylamino)ethyl)(methyl)amino)-4-methoxyphenyl)acrylamide] | 0.33 | 13 | 134 | 0.27 | 0.6 | 10.3
C=CC(=O)Nc1cc(Nc2nccc(-c3c4n(c5ccccc35)CCC4)n2)c(OC)cc1CN1CCOCC1 [Embodiment 9, N-(5-((4-(2,3-Dihydro-1H-pyrrolo[1,2-a]indol-9-yl)pyrimidin-2-yl)amino)-4-methoxy-2-(morpholinomethyl)phenyl)acrylamide] | 0.51 | 111 | 1440 | 0.75 | 6.28 | 13.0
C=CC(=O)Nc1cc(Nc2nccc(-c3c4n(c5ccccc35)CCC4)n2)c(OC)cc1C#CCN(C)C [Embodiment 8, N-(5-((4-(2,3-Dihydro-1H-pyrrolo[1,2-a]indol-9-yl)pyrimidin-2-yl)amino)-2-(3-(dimethylamino)prop-1-yn-1-yl)-4-methoxyphenyl)acrylamide] | 0.64 | 474 | 5460 | 0.91 | 5.22 | 11.5
C=CC(=O)Nc1cc(Nc2nccc(-c3c4n(c5ccccc35)CCC4)n2)c(OC)cc1N(C)CCN1CCCC1 [Embodiment 5] | 0.97 | 19 | 2670 | 0.93 | 7.28 | 140.6
C=CC(=O)Nc1cc(Nc2nccc(-c3c4n(c5ccccc35)CCC4=O)n2)c(OC)cc1N(C)CCN(C)C [Embodiment 12, N-(2-((2-(Dimethylamino)ethyl)(methyl)amino)-4-methoxy-5-((4-(1-oxo-2,3-dihydro-1H-pyrrolo[1,2-a]indol-9-yl)pyrimidin-2-yl)amino)phenyl)acrylamide] | 0.31 | 4.8 | 369 | 0.33 | 0.43 | 76.9
C=CC(=O)Nc1cc(Nc2nccc(-c3c4n(c5ccccc35)CCCC4)n2)c(OC)cc1N(C)CCN(C)C [Embodiment 15, N-(2-((2-(Dimethylamino)ethyl)(methyl)amino)-4-methoxy-5-((4-(6,7,8,9-tetrahydropyrido[1,2-a]indol-10-yl)pyrimidin-2-yl)amino)phenyl)acrylamide] | 0.37 | 15 | 230 | 0.36 | 1.03 | 15.3

Continued, in another order:

IC50 (EGFR d746-750/T790M) [nM] | IC50 [1] [nM] | IC50 (A431 cells EGFR WT) [nM] | IC50 (EGFR T790M/L858R) [nM] | IC50 (EGFR wild type) [nM] | Compound | A431:NCI-H1975 (ratio) (A431 cells EGFR WT)
2.59 | 496 | 3720 | 2.19 | 33 | C=CC(=O)Nc1cc(Nc2nccc(-c3c4n(c5ccccc35)CCC4)n2)c(OC)cc1N(C)CCCN(C)C [Embodiment 7, N-(5-((4-(2,3-Dihydro-1H-pyrrolo[1,2-a]indol-9-yl)pyrimidin-2-yl)amino)-2-((3-(dimethylamino)propyl)(methyl)amino)-4-methoxyphenyl)acrylamide] | 7.5
0.2 | 3 | 597 | 0.1 | 0.3 | C=CC(=O)Nc1cc(Nc2ncc(F)c(-c3c4n(c5ccccc35)CCOC4)n2)c(OC)cc1N(C)CC(C)(C)N(C)C [Embodiment 32, N-(5-((4-(3,4-Dihydro-1H-[1,4]oxazino[4,3-a]indol-10-yl)-5-fluoropyrimidin-2-yl)amino)-2-((2-(dimethylamino)-2-methylpropyl)(methyl)amino)-4-methoxyphenyl)acrylamide] | 199
1.3 | 172 | 2660 | 1.9 | 36.4 | C=CC(=O)Nc1cc(Nc2nccc(-c3c4n(c5ccccc35)CCOC4)n2)c(OC)cc1N(C)CCNC(C)(C)C [Embodiment 24, N-(2-((2-(tert-Butylamino)ethyl)(methyl)amino)-5-((4-(3,4-dihydro-1H-[1,4]oxazino[4,3-a]indol-10-yl)pyrimidin-2-yl)amino)-4-methoxyphenyl)acrylamide] | 15
0.6 | 107 | 971 | 1.2 | 1.5 | C=CC(=O)Nc1cc(Nc2ncc(F)c(-c3c4n(c5c(OC)cccc35)CCOC4)n2)c(OC)cc1N(C)CCN(C)C [Embodiment 35, N-(2-((2-(Dimethylamino)ethyl)(methyl)amino)-5-((5-fluoro-4-(6-methoxy-3,4-dihydro-1H-[1,4]oxazino[4,3-a]indol-10-yl)pyrimidin-2-yl)amino)-4-methoxyphenyl)acrylamide] | 9.1
0.26 | 29 | 965 | 0.3 | 2.7 | C=CC(=O)Nc1cc(Nc2nccc(-c3c4n(c5ccccc35)CCOC4)n2)c(OC)cc1N(CC)CCN(C)C [Embodiment 19, N-(5-((4-(3,4-Dihydro-1H-[1,4]oxazino[4,3-a]indol-10-yl)pyrimidin-2-yl)amino)-2-((2-(dimethylamino)ethyl)(ethyl)amino)-4-methoxyphenyl)acrylamide] | 33
0.3 | 96 | 1290 | 0.2 | 2 | C=CC(=O)Nc1cc(Nc2ncc(F)c(-c3c4n(c5ccccc35)CCOC4)n2)c(OC)cc1N(C)CCNC [Embodiment 31, N-(5-((4-(3,4-Dihydro-1H-[1,4]oxazino[4,3-a]indol-10-yl)-5-fluoropyrimidin-2-yl)amino)-4-methoxy-2-(methyl(2-(methylamino)ethyl)amino)phenyl)acrylamide] | 13.4
0.2 | 6.1 | 270 | 0.23 | 0.53 | C=CC(=O)Nc1cc(Nc2nccc(-c3c4n(c5ccccc35)CCC4)n2)c(OC)cc1N(C)C(C)CN(C)C (stereo not drawn) [Embodiment 11, N-(5-((4-(2,3-Dihydro-1H-pyrrolo[1,2-a]indol-9-yl)pyrimidin-2-yl)amino)-2-((1-(dimethylamino)propan-2-yl)(methyl)amino)-4-methoxyphenyl)acrylamide] | 44.3
0.33 | 17 | 1060 | 0.29 | 4 | C=CC(=O)Nc1cc(Nc2nccc(-c3c4n(c5ccccc35)CCOC4)n2)c(OC)cc1N(C)CCN(CC)CC [Embodiment 16, N-(2-((2-(Diethylamino)ethyl)(methyl)amino)-5-((4-(3,4-dihydro-1H-[1,4]oxazino[4,3-a]indol-10-yl)pyrimidin-2-yl)amino)-4-methoxyphenyl)acrylamide] | 63
